Holding throughout (type): biochemical
In one assay the test system is MYC. Nature of the assay: In vitro transcription-translation (IVTT) assay, MYC reporter. The settings on record: HeLa S3 lysate, 2 hrs at 30° C. The gist of the method: (§1)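 Reporter: mCherry, P2A, then 3×FLAG-target peptide-sfGFP fusion, IRES-initiated; HeLa S3 lysate IVTT; cpd dilutions 30 μM−0.1 μM half-log in 100% DMSO (dilution-plate conc); DNA added last; 2 h, 30° C; PBS quench.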

Another assay concerns MCL-1. As to the kind of experiment: In vitro transcription-translation (IVTT) assay, MCL-1 reporter. As to conditions: HeLa S3 lysate, sfGFP/mCherry ratio, 2 hrs at 30° C. The method, boiled down: as §1
The subject of another assay is CCND1. Nature of the assay: In vitro transcription-translation (IVTT) assay, CCND1 reporter. As to conditions: HeLa S3 lysate, sfGFP/mCherry ratio. The method, boiled down: as §1
In a further assay the test system is BCL-2. Nature of the assay: In vitro transcription-translation (IVTT) assay, BCL-2 reporter. The settings on record: HeLa S3 lysate, sfGFP/mCherry ratio, 2 hrs at 30° C. An excerpt:
All reporter constructs have been cloned into the pT7CFE1-CHis plasmid (ThermoFisher #88860) using Gibson assembly procedures (NEB #E2611L). The parental pT7CFE1-CHis plasmid contains an EMCV IRES at the 5′UTR for translation initiation, a multiple-cloning site (MCS) for gene insertion, an optional C-terminal His-epitope tag, and polyA sequence in the 3′UTR to regulate mRNA stability. All reporters are designed to be inserted at the MCS to include a red fluorescent protein (mCherry), P2A self-cleaving peptide which releases the preceding mCherry protein product, and a fusion open reading frame containing a 3×FLAG epitope, a peptide sequence of interest (TEST), and green fluorescent protein (sfGFP).
Construct Plasmid Preparation: All plasmids are isolated from MACH1 cells (ThermoFisher) grown overnight in ampicillin-containing luria broth, and purified using ZymoPure Express Plasmid Midiprep Kit (Zymo Research). Constructs are sequenced verified and diluted to a working concentration of 110 ng/μL.
HeLa S3 Lysate Preparation: HeLa S3 cell pellets are acquired from Ipracell/Ipratech (Belgium) and shipped as 4 mL frozen cell pellets on dry ice for storage at −80° C. until use. The procedure for lysate preparation is as follows. Prepare 1× Lysis Buffer, cold and stored on ice:
Each preparation takes 8 cell pellets (4 ml packed volume each, approximately 1.0×10^9 cells per pellet). Thaw cell pellets from −80° C. on ice for 90 mins. Lay pellets horizontally on top of the ice and rotate every 30 mins to ensure even thawing. Once thawed, add 4 mL of cold lysis buffer to each pellet, and using a serological pipet, gently pipet up and down to break up clumps. Incubate resuspended cells in ice for an additional 30 mins (plunged into ice). During 30 min incubation, rinse and RNase-zap (Ambion) glass dounces (use loose pestle “A”), gently dry and place on ice until needed. Prepare RNase-free Eppendorf tubes for spinning and for batch storage. Add batch labels to 1.5-1.7 mL RNase-free microcentrifuge tubes (labeling scheme below). Each batch will have an extra 1.5-1.7 mL RNase-free microcentrifuge tube for 40 μL of lysate, label the top of this tube (labeling scheme below). After 30 min incubation, transfer all 8 mL of cell pellet to dounce. Cell lysis is complete after douncing 100 times. Aliquot cell lysis into 1.5-1.7 mL temporary-microcentrifuge tubes. Place tubes in centrifuge with “fins” out, and spin at 1,200×g for 5 mins. After the first spin use a 1 mL pipet to resuspend each tube and repeat spin. This acts as an additional lysis step, is more vigorous and increases lysate yield. During second spin get liquid N2 and a fresh conical tube on ice. After spin is complete, transfer supernatant (lysate) from microcentrifuge tubes into the 50 mL conical tube and keep on ice. Repeat steps 10-14 for all other cell pellets until completed. Once all cell lysate has been transferred to the 50 mL conical tube pipet to mix so the solution is homogenous. Transfer 1 mL of lysate into batch-labeled microcentrifuge tubes and flash freeze in liquid nitrogen. Be sure to pipet up and down to mix throughout transfer step. Place all tubes in the […] for long-term storage.
In vitro transcription-translation assay setup: Each assay includes a master mix containing lysate and shared components, a 96-well plate containing compound titrations for testing, a 96-well DNA plate with reporter constructs to be tested, 96-well skirted PCR plates, and 96-well flat-bottom, black, fluorescent assay plates. […]

For a further assay, the system named is NFKB1. As to the kind of experiment: In vitro transcription-translation (IVTT) assay, NFKB1 reporter. As to conditions: HeLa S3 lysate, sfGFP/mCherry ratio. The gist of the method: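 Cell-free HeLa S3 lysate reactions expressing sfGFP/mCherry reporter constructs ran 2 h at 30 °C with compound from half-log DMSO series (30 μM–0.1 μM as prepared), then were quenched with PBS. No-DNA background was subtracted, and the sfGFP/mCherry ratio was normalized to the no-drug control and fit for IC50.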

Where [1] appears, read: IVTT assay, MYC reporter, normalized sfGFP/mCherry ratio, half-log dilutions 30 μM-0.1 μM.

pIC50: −log10 of the molar value. Some results are limits rather than exact numbers.

Usually pIC50 stands for the IC50 on a negative log10 scale, so that one unit is a factor of ten.

Consider `COc1ccc(C[C@H]2NC[C@H](O)[C@H]2OC(=O)NCc2cccnn2)cc1` [V187916, (2R,3S,4S)-4-hydroxy-2-[(4-methoxyphenyl)methyl]pyrrolidin-3-yl N-(pyridazin-3-ylmethyl)carbamate], for which the pIC50 in the assay with MYC (sfGFP/mCherry ratio), in the assay on MCL-1, in the assay on CCND1 (2 hrs at 30° C.) and in the assay on BCL-2 was > 5.00 in each case.
Regarding `COc1ccc(C[C@H]2NC[C@H](O)[C@H]2OC(=O)NCCNC(=O)C2(N)CC2)cc1` [V187919, (2R,3S,4S)-4-hydroxy-2-[(4-methoxyphenyl)methyl]pyrrolidin-3-yl N-{2-[(1-aminocyclopropyl)formamido]ethyl}carbamate], the pIC50 in the assay on MYC (sfGFP/mCherry ratio) is 4.52 to 4.70; with CCND1 (2 hrs at 30° C.), < 4.52; in the assay on BCL-2 it was < 4.52.
Regarding `COc1ccc(C[C@H]2NC[C@H](O)[C@H]2OC(=O)NCc2cc(Cl)[nH]n2)cc1` [Cmpd V187860], the pIC50 with MYC (sfGFP/mCherry ratio), with MCL-1, in the assay on CCND1 (2 hrs at 30° C.) and with BCL-2 was > 5.00 throughout.
As to `COc1ccc(C[C@H]2NC[C@H](O)[C@H]2OC(=O)NCCNc2ncnc3nc[nH]c23)cc1` [V188060, (2R,3S,4S)-4-hydroxy-2-[(4-methoxyphenyl)methyl]pyrrolidin-3-yl N-[2-(7H-purin-6-ylamino)ethyl]carbamate], the pIC50 was 4.70 to 5.00 with MYC (sfGFP/mCherry ratio), < 4.52 with MCL-1, 4.52 to 4.70 in the assay with CCND1 (2 hrs at 30° C.) and < 4.52 with BCL-2.
As for `COc1ccc(C[C@H]2NC[C@H](O)[C@H]2OC(=O)NCc2ccncc2Cl)cc1` [V188052, (2R,3S,4S)-4-hydroxy-2-[(4-methoxyphenyl)methyl]pyrrolidin-3-yl N-[(3-chloropyridin-4-yl)methyl]carbamate], the pIC50 is > 5.00 in the assay on MYC (sfGFP/mCherry ratio), > 5.00 in the assay with MCL-1 and 4.70 to 5.00 in the assay on BCL-2.
Take `COc1ccc(C[C@H]2NC[C@H](O)[C@H]2OC(=O)NNC(=O)c2ccccc2)cc1` [V187812, N′-({[(2R,3S,4S)-4-hydroxy-2-[(4-methoxyphenyl)methyl]pyrrolidin-3-yl]oxy}carbonyl)benzohydrazide]: the pIC50 was > 5.00 in the assay on MYC (sfGFP/mCherry ratio), > 5.00 in the assay on MCL-1, > 5.00 in the assay on CCND1 (2 hrs at 30° C.) and 4.70 to 5.00 in the assay on BCL-2.
Consider `COc1ccc(C[C@H]2NC[C@H](O)[C@H]2OC(=O)NCCNC(=O)[C@@H]2CCCN2)cc1` [V188015, (2R,3S,4S)-4-hydroxy-2-[(4-methoxyphenyl)methyl]pyrrolidin-3-yl N-{2-[(2S)-pyrrolidin-2-ylformamido]ethyl}carbamate], for which the pIC50 is 4.70 to 5.00 in the assay on MCL-1, 4.70 to 5.00 with CCND1 (2 hrs at 30° C.) and < 4.52 in the assay with BCL-2.
Take `COc1ccc(C[C@H]2NC[C@H](O)[C@H]2OC(=O)NCCNc2nc(N)nc3nc[nH]c23)cc1` [Cmpd V188056]: the pIC50 is 4.52 to 4.70 with MYC (sfGFP/mCherry ratio), < 4.52 in the assay on MCL-1, < 4.52 in the assay with CCND1 (2 hrs at 30° C.) and < 4.52 in the assay on BCL-2.
As to `COc1ccc(C[C@H]2NC[C@H](O)[C@H]2OC(=O)NCCc2ccc(-c3ccccc3)cc2)cc1` [V187979], the pIC50 in the assay on MYC (sfGFP/mCherry ratio), in the assay with MCL-1 and in the assay with BCL-2 was < 4.52 in each case.
Regarding `COc1ccc(C[C@H]2NC[C@H](O)[C@H]2OC(=O)NCc2cccc(-c3ccccc3)c2)cc1` [V187982, (2R,3S,4S)-4-hydroxy-2-[(4-methoxyphenyl)methyl]pyrrolidin-3-yl N-{[1,1′-biphenyl]-3-ylmethyl}carbamate], the pIC50 with MYC (sfGFP/mCherry ratio), with MCL-1, in the assay with CCND1 (2 hrs at 30° C.) and with BCL-2 was < 4.52 each time.
Regarding `COc1ccc(C[C@H]2NC[C@H](O)[C@H]2OC(=O)NCC(=O)O)cc1` [V188016], the pIC50 with MYC (sfGFP/mCherry ratio), with MCL-1, in the assay on CCND1 (2 hrs at 30° C.) and in the assay on BCL-2 was < 4.52 throughout.
On to `COc1ccc(C[C@H]2NC[C@H](O)[C@H]2OC(=O)NC[C@H]2CCCNC2)cc1` [V187930, (2R,3S,4S)-4-hydroxy-2-[(4-methoxyphenyl)methyl]pyrrolidin-3-yl N-[(3S)-piperidin-3-ylmethyl]carbamate], for which the pIC50 in the assay with MYC (sfGFP/mCherry ratio) was 4.52 to 4.70; in the assay with MCL-1, 4.52 to 4.70; with CCND1 (2 hrs at 30° C.), 4.52 to 4.70; in the assay with BCL-2, < 4.52.
Consider `COc1ccc(C[C@H]2NC[C@H](O)[C@H]2OC(=O)NCCc2n[nH]cc2C#N)cc1` [Cmpd V188126], for which the pIC50 with MCL-1, in the assay with CCND1 (2 hrs at 30° C.) and in the assay on BCL-2 was > 5.00 in each case.
On to `COc1ccc(C[C@H]2NC[C@H](O)[C@H]2OC(=O)NC[C@@H]2CCCNC2)cc1` [V187929, (2R,3S,4S)-4-hydroxy-2-[(4-methoxyphenyl)methyl]pyrrolidin-3-yl N-[(3R)-piperidin-3-ylmethyl]carbamate], for which the pIC50 in the assay with MYC (sfGFP/mCherry ratio), with MCL-1 and in the assay on BCL-2 was < 4.52 each time.
In the case of `COc1ccc(C[C@H]2NC[C@H](O)[C@H]2OC(=O)NCc2n[nH]nc2COCc2ccccc2)cc1` [Cmpd V187805], the pIC50 in the assay with MCL-1, with CCND1 (2 hrs at 30° C.) and in the assay on BCL-2 was < 4.52 each time.
In the case of `O=C(NCCC(O)C(F)(F)F)O[C@@H]1[C@@H](O)CN[C@@H]1Cc1ccc(-c2cnco2)cc1` (stereo partly drawn) [V192868, (2R,3S,4S)-4-hydroxy-2-{[4-(1,3-oxazol-5-yl)phenyl]methyl}pyrrolidin-3-yl N-(4,4,4-trifluoro-3-hydroxybutyl)carbamate], the negative-log IC50 (pIC50) in the assay on NFKB1, with MYC (setting [1]) and in the assay on CCND1 (IVTT assay) was > 5.00 each time.
As to `O=C(NCC[C@@H]1CCCN1)O[C@@H]1[C@@H](O)CN[C@@H]1Cc1ccc(-c2cnns2)cc1` [V192320, (2R,3S,4S)-4-hydroxy-2-{[4-(1,2,3-thiadiazol-5-yl)phenyl]methyl}pyrrolidin-3-yl N-{2-[(2S)-pyrrolidin-2-yl]ethyl}carbamate], the pIC50 in the assay on NFKB1, with MYC (setting [1]) and with CCND1 (IVTT assay) was > 5.00 throughout.
In the case of `O=C(NCC[C@@H]1CCCN1)O[C@@H]1[C@@H](O)CN[C@@H]1Cc1ccc(C(F)F)cc1` [V192893, (2R,3S,4S)-2-(4-(difluoromethyl)benzyl)-4-hydroxypyrrolidin-3-yl (2-((S)-pyrrolidin-2-yl)ethyl)carbamate], the pIC50 in the assay on NFKB1, in the assay on MYC (setting [1]) and with CCND1 (IVTT assay) was > 5.00 throughout.
As for `O=C(NCCc1cc(F)c(O)c(F)c1)O[C@@H]1[C@@H](O)CN[C@@H]1Cc1ccc(-c2cnco2)cc1` [V192432, (2R,3S,4S)-4-hydroxy-2-{[4-(1,3-oxazol-5-yl)phenyl]methyl}pyrrolidin-3-yl N-[2-(3,5-difluoro-4-hydroxyphenyl)ethyl]carbamate], the pIC50 in the assay on NFKB1, in the assay with MYC (setting [1]) and in the assay on CCND1 (IVTT assay) was > 5.00 in each case.
As for `O=C(NCCC12CNC(C1)C2)O[C@@H]1[C@@H](O)CN[C@@H]1Cc1ccc(-c2cnco2)cc1` [V192849, (2R,3S,4S)-4-hydroxy-2-{[4-(1,3-oxazol-5-yl)phenyl]methyl}pyrrolidin-3-yl N-(2-{2-azabicyclo[2.1.1]hexan-4-yl}ethyl)carbamate], the negative logarithm of the IC50 (pIC50) in the assay with NFKB1, with MYC (setting [1]) and with CCND1 (IVTT assay) was > 5.00 throughout.

Values taken from US20250129021A1, “SMALL MOLECULE PROTEIN SYNTHESIS MODULATORS” (Interdict Bio, Inc., priority 2023, published 2025).
